In the CheMixHub drug solubility set:

Assay: xn = mol fraction of the nth substance listed, in the solute-free solvent

Cc1c(Br)c(=O)n(C2CCCC2)c2nc(Cl)ncc12 + C1CCOC1 + CCO
solubility (g/100 g solution)
Conditions | 278.15 K | 283.15 K | 288.15 K | 293.15 K | 298.15 K | 303.15 K | 308.15 K | 313.15 K | 318.15 K | 323.15 K
x2 = 0.1 | 0.59 | 0.723 | 0.88 | 1.07 | 1.28 | 1.53 | 1.82 | 2.14 | 2.52 | 2.94
x2 = 0.2 | 1.06 | 1.25 | 1.51 | 1.81 | 2.16 | 2.56 | 3.01 | 3.52 | 4.1 | 4.74
x2 = 0.3 | 1.49 | 1.8 | 2.16 | 2.58 | 3.05 | 3.6 | 4.21 | 4.9 | 5.66 | 6.51
x2 = 0.4 | 1.9 | 2.29 | 2.74 | 3.26 | 3.84 | 4.51 | 5.26 | 6.1 | 7.04 | 8.07
x2 = 0.5 | 2.25 | 2.71 | 3.34 | 3.83 | 4.52 | 5.29 | 6.16 | 7.13 | 8.2 | 9.38
x2 = 0.6 | 2.56 | 3.07 | 3.67 | 4.35 | 5.12 | 5.99 | 6.96 | 8.04 | 9.23 | 10.5
x2 = 0.7 | 2.85 | 3.42 | 4.08 | 4.83 | 5.68 | 6.64 | 7.71 | 8.9 | 10.2 | 11.7
x2 = 0.8 | 3.12 | 3.75 | 4.47 | 5.29 | 6.22 | 7.27 | 8.44 | 9.73 | 11.2 | 12.7
x2 = 0.9 | 3.34 | 4.01 | 4.79 | 5.67 | 6.67 | 7.79 | 9.04 | 10.4 | 11.9 | 13.6

Cc1c(Br)c(=O)n(C2CCCC2)c2nc(Cl)ncc12 + CC1=CC(=O)CC(C)(C)C1 + CC(C)O
solubility (g/100 g solution)
Conditions | 278.15 K | 283.15 K | 288.15 K | 293.15 K | 298.15 K | 303.15 K | 308.15 K | 313.15 K | 318.15 K | 323.15 K
x2 = 0.1 | 0.104 | 0.147 | 0.203 | 0.285 | 0.388 | 0.522 | 0.702 | 0.929 | 1.27 | 1.59
x2 = 0.2 | 0.167 | 0.234 | 0.327 | 0.45 | 0.61 | 0.819 | 1.09 | 1.43 | 1.87 | 2.42
x2 = 0.3 | 0.232 | 0.325 | 0.45 | 0.614 | 0.828 | 1.11 | 1.47 | 1.92 | 2.49 | 3.21
x2 = 0.4 | 0.288 | 0.401 | 0.554 | 0.752 | 1.02 | 1.35 | 1.79 | 2.33 | 3.02 | 3.87
x2 = 0.5 | 0.332 | 0.458 | 0.633 | 0.862 | 1.16 | 1.54 | 2.03 | 2.65 | 3.43 | 4.39
x2 = 0.6 | 0.364 | 0.506 | 0.697 | 0.947 | 1.27 | 1.69 | 2.23 | 2.9 | 3.75 | 4.8
x2 = 0.7 | 0.391 | 0.543 | 0.746 | 1.01 | 1.37 | 1.82 | 2.39 | 3.12 | 4.02 | 5.14
x2 = 0.8 | 0.416 | 0.579 | 0.796 | 1.08 | 1.45 | 1.93 | 2.54 | 3.32 | 4.28 | 5.48
x2 = 0.9 | 0.441 | 0.613 | 0.844 | 1.15 | 1.54 | 2.05 | 2.7 | 3.52 | 4.55 | 5.82

CCOc1ccccc1C(N)=O + CC#N + CC(C)O
solubility (g/100 g solution)
Conditions | x2 = 0.1 | x2 = 0.2 | x2 = 0.3 | x2 = 0.4 | x2 = 0.5 | x2 = 0.6 | x2 = 0.7 | x2 = 0.8 | x2 = 0.9
298.15 K | 4.36 | 5.28 | 6.05 | 6.41 | 6.8 | 6.66 | 6.22 | 5.59 | 4.71
303.15 K | 5.5 | 6.58 | 7.52 | 8.13 | 8.55 | 8.45 | 7.99 | 7.3 | 6.12
308.15 K | 6.49 | 7.95 | 9.11 | 10.1 | 10.4 | 10.5 | 10.1 | 9.2 | 7.99
313.15 K | 8.08 | 9.85 | 11.3 | 12.4 | 13 | 13 | 12.6 | 11.7 | 9.97
318.15 K | 10.2 | 12.3 | 14.1 | 15.4 | 16.1 | 16.2 | 15.6 | 14.4 | 12.6
323.15 K | 13 | 15.5 | 17.7 | 19.2 | 20.1 | 20.3 | 19.6 | 18.3 | 16.1

CCOc1ccccc1C(N)=O + CC#N + CCO
323.15 K
Conditions | solubility (g/100 g solution)
x2 = 0.1 | 17.4
x2 = 0.2 | 19.8
x2 = 0.3 | 21.8
x2 = 0.4 | 23.3
x2 = 0.5 | 23.9
x2 = 0.6 | 23.3
x2 = 0.7 | 21.7
x2 = 0.8 | 19.3
x2 = 0.9 | 16.4

CCOC(=O)OC1=C(c2cc(C)ccc2C)C(=O)NC12CCC(OC)CC2 (centres undefined) + CC(C)=O + O
solubility (g/100 g solution)
Conditions | 278.15 K | 283.15 K | 288.15 K | 293.15 K | 298.15 K | 303.15 K | 308.15 K | 313.15 K | 318.15 K
x2 = 0.2 | 0.475 | 0.687 | 0.839 | 1.08 | 1.39 | 1.78 | 2.25 | 2.83 | 3.61
x2 = 0.4 | 3.7 | 4.54 | 5.58 | 6.92 | 8.55 | 10.5 | 12.8 | 15.7 | 19
x2 = 0.6 | 7.51 | 9.16 | 10.8 | 13 | 15.4 | 18.3 | 21.6 | 25.5 | 29.7
x2 = 0.8 | 9.34 | 10.6 | 12.6 | 14.8 | 17.3 | 20.3 | 23.7 | 27.4 | 31.4

Cc1nc2n(c(=O)c1CCN1CCC(c3noc4cc(F)ccc34)CC1)CCCC2 + CC(C)=O + O
solubility (g/100 g solution)
Conditions | 278.15 K | 283.15 K | 288.15 K | 293.15 K | 298.15 K | 303.15 K | 308.15 K | 313.15 K
x2 = 0.1175 | 0.369 | 0.399 | 0.453 | 0.525 | 0.623 | 0.702 | 0.817 | 0.918
x2 = 0.1714 | 0.727 | 0.805 | 0.935 | 1.11 | 1.27 | 1.53 | 1.7 | 2.03
x2 = 0.2368 | 1.54 | 1.75 | 2.02 | 2.34 | 2.73 | 3.22 | 3.75 | 4.38
x2 = 0.3171 | 2.54 | 2.93 | 3.36 | 3.95 | 4.61 | 5.44 | 6.41 | 7.62
x2 = 0.42 | 3.38 | 3.87 | 4.49 | 5.26 | 6.16 | 7.21 | 8.51 | 10.1
x2 = 0.5538 | 3.5 | 4.03 | 4.71 | 5.51 | 6.46 | 7.65 | 9.06 | 10.7
x2 = 0.7366 | 2.51 | 2.92 | 3.5 | 4.08 | 4.75 | 5.67 | 6.67 | 7.88

Nc1nc2ccc(OC(F)(F)F)cc2s1 + CC(C)=O + O
solubility (g/100 g solution)
Conditions | 278.15 K | 283.15 K | 288.15 K | 293.15 K | 298.15 K | 303.15 K | 308.15 K | 313.15 K | 318.15 K | 323.15 K
x2 = 0.1174 | 2.79 | 2.99 | 3.26 | 3.49 | 3.89 | 4.23 | 4.48 | 4.79 | 4.98 | 5.23
x2 = 0.1714 | 6.6 | 6.96 | 7.42 | 7.95 | 8.29 | 8.75 | 9.09 | 9.43 | 9.77 | 10.1
x2 = 0.2367 | 25.5 | 25.9 | 26.5 | 27 | 27.6 | 28 | 28.5 | 29.1 | 29.8 | 30.1
x2 = 0.3175 | 40.2 | 40.6 | 40.9 | 41.1 | 41.5 | 41.8 | 42 | 42.3 | 42.7 | 43
x2 = 0.4203 | 55.1 | 56.3 | 57 | 57.7 | 59 | 60.2 | 61.1 | 62.2 | 62.9 | 63.6
x2 = 0.5537 | 70.6 | 71.7 | 72.7 | 73.6 | 74.5 | 75.3 | 76.2 | 76.7 | 77.2 | 77.8
x2 = 0.7361 | 68 | 69 | 69.9 | 71 | 71.8 | 72.8 | 73.6 | 74.2 | 75 | 75.7

CC(S)C(=O)NCC(=O)O (centres undefined) + CC(C)CO + CC#N
solubility (g/100 g solution)
Conditions | 273.15 K | 278.15 K | 283.15 K | 288.15 K | 293.15 K | 298.15 K | 303.15 K | 308.15 K | 313.15 K | 318.15 K
x2 = 0.1216 | 3.99 | 4.43 | 4.93 | 5.48 | 6.05 | 6.7 | 7.36 | 8.06 | 8.81 | 9.64
x2 = 0.2697 | 4.62 | 5.31 | 6.02 | 6.81 | 7.59 | 8.41 | 9.25 | 10.1 | 11.2 | 12.4
x2 = 0.4538 | 7.02 | 7.59 | 8.23 | 8.89 | 9.58 | 10.4 | 11.1 | 12 | 13 | 13.9
x2 = 0.689 | 4.17 | 4.7 | 5.22 | 5.84 | 6.48 | 7.14 | 7.88 | 8.69 | 9.56 | 10.5

CC(S)C(=O)NCC(=O)O (centres undefined) + CC(C)CO + Cc1ccccc1
solubility (g/100 g solution)
Conditions | 273.15 K | 278.15 K | 283.15 K | 288.15 K | 293.15 K | 298.15 K | 303.15 K | 308.15 K | 313.15 K | 318.15 K
x2 = 0.2371 | 0.622 | 0.677 | 0.744 | 0.819 | 0.9 | 0.989 | 1.09 | 1.21 | 1.34 | 1.48
x2 = 0.4531 | 1.14 | 1.3 | 1.45 | 1.64 | 1.87 | 2.12 | 2.37 | 2.63 | 2.92 | 3.35
x2 = 0.6509 | 1.71 | 1.98 | 2.28 | 2.67 | 3.04 | 3.56 | 4.09 | 4.71 | 5.39 | 6.3
x2 = 0.8325 | 2.92 | 3.45 | 4.01 | 4.57 | 5.19 | 5.87 | 6.57 | 7.38 | 8.31 | 9.34

CCOc1ccccc1C(N)=O + CC(C)O + CC#N
293.15 K
Conditions | solubility (g/100 g solution)
x2 = 0.1 | 3.74
x2 = 0.2 | 4.36
x2 = 0.3 | 4.92
x2 = 0.4 | 5.26
x2 = 0.5 | 5.44
x2 = 0.6 | 5.14
x2 = 0.7 | 4.81
x2 = 0.8 | 4.2
x2 = 0.9 | 3.48
